Measurements taken from US4950605A, “FR-900493 substance, a process for its production and a pharmaceutical composition containing the same” (Fujisawa Pharmaceutical Co., Ltd., priority 1988, dated 1990).
Values after ≈ are worked out from the molar mass of the structure shown.

Key:
[1] = system: Staphylococcus aureus 1601-6; assay: Antimicrobial activity, MIC on 1/2 Mueller-Hinton agar; format: cell-based; details: 37° C., 24 hours
Protocol: (§1) Antimicrobial activities: (a) Test Method One loopful of an overnight culture (10^8 cells/ml) of each test bacteria in bouillon was streaked on 1/2 Mueller-Hinton agar containing the graded concentration of the FR-900493 substance and the minimal inbibitory concentration (MIC) was determined after incubation at 37° C. for 24 hours.

[2] = system: Bacillus subtilis ATCC-6633; assay: as above; format: cell-based; details: 37° C., 24 hours
Protocol: as §1

[3] = system: Staphylococcus aureus 209P JC-1; assay: as above; format: cell-based; details: 37° C., 24 hours
Protocol: as §1

[4] = system: Staphylococcus aureus 1601-47; assay: Protective efficacy in experimental infections in mice; format: in vivo, ddY mouse (infected with Staphylococcus aureus 1601-47); details: 30 mg/kg subcutaneous, one hour after intraperitoneal infection with 3×10^6 cells; male ddY mice 5 weeks; observed 2 days
Protocol: Protective efficacy in experimental infections in mice: The in vivo activity of the FR-900493 substance against experimental infections due to Staphylococcus aureus 1601-47 was examined. One hour after the intraperitoneal injection of 3×10^6 cell of the test strain to each ddY mouse (male, 5 weeks age), the solution of the FR-900493 substance was administered subcutaneously.

Acute toxicity in mice = format: in vivo; details: intravenous; ddY mice, 4 weeks age, male
Protocol: The median lethal dose (LD50) of the FR-900493 substance in mice (ddY, 4 weeks age, male) by intravenous administration was >500 mg/kg.

For `CN(CCCN)[C@H](C(=O)O)[C@H](O[C@@H]1O[C@H](CN)[C@@H](O)[C@H]1O)[C@H]1O[C@@H](n2ccc(=O)[nH]c2=O)[C@H](O)[C@@H]1O` [FR-900493 substance], the “minimal inhibitory concentration (MIC)” value [1] was 6.25 µg/mL (≈ 12 µM), the “minimal inhibitory concentration (MIC)” value [2] was 3.13 µg/mL (≈ 6.02 µM) and the “minimal inhibitory concentration (MIC)” value [3] was 3.13 µg/mL (≈ 6.02 µM). For the same compound, the Survival [4] was 100% and the “median lethal dose (LD50)” value (Acute toxicity in mice) was over 500 mg/kg.
